According to ChEMBL document CHEMBL1139829, “2-Benzenesulfonyl-8a-benzyl-hexahydro-2H-isoquinolin-6-ones as selective glucocorticoid receptor antagonists” (Bioorg Med Chem Lett, 2007):

Columns and labels:
Glucocorticoid receptor [1] = molecular target: T1, Glucocorticoid receptor (Homo sapiens, UniProt P04150); assay: Displacement of [3H]dexamethasone from human glucocorticoid receptor expressed in recombinant baculovirus
T1 sequence (P04150 whole entry): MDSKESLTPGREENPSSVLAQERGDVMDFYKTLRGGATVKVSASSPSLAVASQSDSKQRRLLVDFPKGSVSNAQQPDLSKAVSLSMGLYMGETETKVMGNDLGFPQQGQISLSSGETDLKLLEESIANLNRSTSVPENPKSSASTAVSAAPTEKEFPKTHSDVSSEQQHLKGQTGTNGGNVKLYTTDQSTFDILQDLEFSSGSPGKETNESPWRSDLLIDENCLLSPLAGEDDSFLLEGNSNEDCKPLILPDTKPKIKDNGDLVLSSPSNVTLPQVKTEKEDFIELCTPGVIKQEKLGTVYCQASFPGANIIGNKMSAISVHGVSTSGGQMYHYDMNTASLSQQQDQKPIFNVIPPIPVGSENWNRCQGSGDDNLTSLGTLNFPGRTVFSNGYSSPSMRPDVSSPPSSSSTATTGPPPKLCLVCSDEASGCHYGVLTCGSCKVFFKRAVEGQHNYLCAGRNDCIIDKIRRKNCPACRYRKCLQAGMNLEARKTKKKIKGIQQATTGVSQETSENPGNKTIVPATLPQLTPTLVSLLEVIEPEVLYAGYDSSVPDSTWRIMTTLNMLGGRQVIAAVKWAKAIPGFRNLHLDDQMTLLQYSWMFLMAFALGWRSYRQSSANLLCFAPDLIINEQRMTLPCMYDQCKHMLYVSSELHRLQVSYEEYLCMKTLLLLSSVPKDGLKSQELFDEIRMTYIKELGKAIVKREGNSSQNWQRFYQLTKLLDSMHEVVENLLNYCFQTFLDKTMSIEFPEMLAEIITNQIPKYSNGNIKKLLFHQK

Glucocorticoid receptor [2] = molecular target: T1, Glucocorticoid receptor; assay: Antagonist activity at human glucocorticoid receptor in SW1353 cells assessed as inhibition of dexamethasone-induced luciferase expression by MMTV5 reporter gene assay; format: functional, cell-based
Glucocorticoid receptor [3] = molecular target: T1, Glucocorticoid receptor; assay: Binding affinity to glucocorticoid receptor in SW1353 cells by whole-cell binding assay; format: cell-based
CYP2C9 = CYP2C9 (Homo sapiens, UniProt P11712); assay: Inhibition of CYP2C9 at 1 uM; format: ADME
CYP2C9, sequence (P11712 whole entry): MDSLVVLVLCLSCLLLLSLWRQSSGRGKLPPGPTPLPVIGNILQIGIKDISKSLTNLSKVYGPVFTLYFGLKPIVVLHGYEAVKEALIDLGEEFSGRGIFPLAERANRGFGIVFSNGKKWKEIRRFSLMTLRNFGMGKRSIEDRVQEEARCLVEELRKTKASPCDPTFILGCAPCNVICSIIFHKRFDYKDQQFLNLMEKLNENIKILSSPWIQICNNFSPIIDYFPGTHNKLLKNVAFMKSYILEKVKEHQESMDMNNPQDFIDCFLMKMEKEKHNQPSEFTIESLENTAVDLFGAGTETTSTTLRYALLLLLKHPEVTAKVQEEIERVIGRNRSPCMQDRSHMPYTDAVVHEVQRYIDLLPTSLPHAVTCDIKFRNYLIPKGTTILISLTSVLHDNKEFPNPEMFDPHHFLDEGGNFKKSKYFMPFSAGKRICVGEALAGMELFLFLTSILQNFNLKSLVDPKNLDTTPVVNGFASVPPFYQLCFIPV

CYP2D6 = CYP2D6 (Homo sapiens, UniProt P10635); assay: Inhibition of CYP2D6 at 1 uM; format: ADME
CYP2D6, sequence (P10635 whole entry): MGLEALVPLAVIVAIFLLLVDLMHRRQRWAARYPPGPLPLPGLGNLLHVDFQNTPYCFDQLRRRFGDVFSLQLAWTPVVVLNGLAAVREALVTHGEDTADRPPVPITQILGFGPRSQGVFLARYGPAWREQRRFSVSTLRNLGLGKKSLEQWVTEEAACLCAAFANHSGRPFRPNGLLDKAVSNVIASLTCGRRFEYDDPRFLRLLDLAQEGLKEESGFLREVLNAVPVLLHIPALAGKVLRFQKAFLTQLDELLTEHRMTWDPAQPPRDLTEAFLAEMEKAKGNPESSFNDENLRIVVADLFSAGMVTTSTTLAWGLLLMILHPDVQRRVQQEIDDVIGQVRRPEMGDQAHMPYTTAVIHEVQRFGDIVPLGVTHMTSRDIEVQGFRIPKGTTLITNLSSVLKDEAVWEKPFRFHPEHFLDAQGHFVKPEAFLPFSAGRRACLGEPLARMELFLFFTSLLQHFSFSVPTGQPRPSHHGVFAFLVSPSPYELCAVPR

CYP2C19 = CYP2C19 (Homo sapiens, UniProt P33261); assay: Inhibition of CYP2C19 at 1 uM; format: ADME
CYP2C19, sequence (P33261 whole entry): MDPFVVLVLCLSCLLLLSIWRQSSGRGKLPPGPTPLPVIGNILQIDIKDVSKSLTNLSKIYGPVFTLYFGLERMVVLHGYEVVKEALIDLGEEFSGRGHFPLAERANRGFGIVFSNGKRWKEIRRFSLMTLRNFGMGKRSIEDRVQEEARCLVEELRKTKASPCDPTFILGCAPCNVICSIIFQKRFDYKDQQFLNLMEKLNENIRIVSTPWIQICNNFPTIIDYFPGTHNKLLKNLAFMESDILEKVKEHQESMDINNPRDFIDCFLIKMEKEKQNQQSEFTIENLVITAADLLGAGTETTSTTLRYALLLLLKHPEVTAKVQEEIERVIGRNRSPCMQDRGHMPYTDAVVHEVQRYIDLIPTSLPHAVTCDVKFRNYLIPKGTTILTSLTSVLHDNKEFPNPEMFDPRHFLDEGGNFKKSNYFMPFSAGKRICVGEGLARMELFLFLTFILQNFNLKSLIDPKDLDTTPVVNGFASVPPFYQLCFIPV

Structure (SMILES)	Ki (Glucocorticoid receptor [1])	other results
N#Cc1ccccc1S(=O)(=O)N1CCC2=CC(=O)CCC2(Cc2ccccc2)C1 (racemic)	1000 nM	–
O=C1C=C2CCN(S(=O)(=O)c3ccccc3C(F)(F)F)CC2(Cc2ccccc2)CC1 (racemic)	4450 nM	–
CC(C)(C)c1ccc(S(=O)(=O)N2CCC3=CC(=O)CC[C@]3(Cc3ccccc3)C2)cc1	4 nM	Ki (Glucocorticoid receptor [2]): 200 nM
COc1ccc(S(=O)(=O)N2CCC3=CC(=O)CCC3(Cc3ccccc3)C2)cc1 (racemic)	216 nM	–
CS(=O)(=O)c1ccc(S(=O)(=O)N2CCC3=CC(=O)CCC3(Cc3ccccc3)C2)cc1 (racemic)	137 nM	–
COc1ccc(C[C@]23CCC(=O)C=C2CCN(S(=O)(=O)c2ccc(C(C)(C)C)cc2)C3)cc1	4 nM	Ki (Glucocorticoid receptor [3]): 352 nM; Ki (Glucocorticoid receptor [2]): 200 nM
O=C1C=C2CCN(S(=O)(=O)c3ccc(F)cc3)CC2(Cc2ccccc2)CC1 (racemic)	800 nM	–
O=C1C=C2CCN(S(=O)(=O)c3ccc([N+](=O)[O-])cc3)CC2(Cc2ccccc2)CC1 (racemic)	1250 nM	–
CCCCC(=O)N1CCC2=CC(=O)CCC2(Cc2ccccc2)C1 (racemic)	> 10000 nM	–
O=C1C=C2CCN(S(=O)(=O)Nc3ccccc3)CC2(Cc2ccccc2)CC1 (racemic)	1200 nM	–
CC(C)(C)c1ccc(S(=O)(=O)N2CCC3=CC(=O)CCC3(Cc3ccc(N4CCCCC4)cc3)C2)cc1 (racemic)	9 nM	Ki (Glucocorticoid receptor [2]): > 1000 nM
O=C1C=C2CCN(S(=O)(=O)c3ccc(Oc4ccccc4)cc3)CC2(Cc2ccccc2)CC1 (racemic)	163 nM	–
CN(C)c1ccc(CC23CCC(=O)C=C2CCN(S(=O)(=O)c2ccc(C(C)(C)C)cc2)C3)cc1 (racemic)	15 nM	Ki (Glucocorticoid receptor [2]): > 1000 nM
COc1ccc(CC23CCC(=O)C=C2CCN(S(=O)(=O)c2ccc(C(C)(C)C)cc2)C3)cc1 (racemic)	6 nM	Ki (Glucocorticoid receptor [2]): 230 nM
CC(=O)Nc1ccc(S(=O)(=O)N2CCC3=CC(=O)CCC3(Cc3ccccc3)C2)cc1 (racemic)	750 nM	–
COc1ccc(N2CCC3=CC(=O)CCC3(Cc3ccccc3)C2)cc1 (centres undefined)	> 5000 nM	–
COc1cccc(CC23CCC(=O)C=C2CCN(S(=O)(=O)c2ccc(C(C)(C)C)cc2)C3)c1 (centres undefined)	76 nM	–
CC(C)(C)c1ccc(S(=O)(=O)N2CCC3=CC(=O)CC[C@@]3(Cc3ccccc3)C2)cc1	> 10000 nM	–
O=C1C=C2CCN(Cc3ccccc3)CC2(Cc2ccccc2)CC1 (racemic)	3700 nM	–
CC(C)(C)c1ccc(S(=O)(=O)N2CCC3=CC(=O)CCC3(Cc3ccc(NS(C)(=O)=O)cc3)C2)cc1 (racemic)	13 nM	Ki (Glucocorticoid receptor [2]): > 1000 nM
CC(C)(C)c1ccc(S(=O)(=O)N2CCC3=CC(=O)CCC3(Cc3ccc(-c4ccncc4)cc3)C2)cc1 (racemic)	2 nM	inhibition at 1 µM (CYP2C9): 76%; inhibition at 1 µM (CYP2D6): 44%; Ki (Glucocorticoid receptor [2]): 180 nM; inhibition at 1 µM (CYP2C19): 61%
CC(C)(C)c1ccc(S(=O)(=O)N2CCC3=CC(=O)CCC3(Cc3ccc(N4CCOCC4)cc3)C2)cc1 (centres undefined)	10 nM	Ki (Glucocorticoid receptor [2]): 400 nM
CC(C)(C)c1ccc(S(=O)(=O)N2CCC3=CC(=O)CCC3(Cc3ccc(N)cc3)C2)cc1 (racemic)	99 nM	–
O=C1C=C2CCN(S(=O)(=O)c3ccc(Cl)cc3)CC2(Cc2ccccc2)CC1 (racemic)	193 nM	–
O=C1C=C2CCN(S(=O)(=O)c3ccc(N4CCOCC4)cc3)CC2(Cc2ccccc2)CC1 (centres undefined)	64 nM	–

Structure (SMILES)	Ki (Glucocorticoid receptor [1])	other results
O=C1C=C2CCN(S(=O)(=O)c3cccc(Cl)c3)CC2(Cc2ccccc2)CC1 (racemic)	432 nM	–
CC(C)(C)c1ccc(S(=O)(=O)N2CCC3=CC(=O)CCC3(Cc3ccc(C#N)cc3)C2)cc1 (racemic)	65 nM	–
CS(=O)(=O)Nc1ccc(S(=O)(=O)N2CCC3=CC(=O)CCC3(Cc3ccccc3)C2)cc1 (racemic)	950 nM	–
CC(C)(C)c1ccc(S(=O)(=O)N2CCC3=CC(=O)CCC3(Cc3ccccc3)C2)cc1 (racemic)	14 nM	Ki (Glucocorticoid receptor [2]): > 1000 nM
COc1ccc(CN2CCC3=CC(=O)CCC3(Cc3ccccc3)C2)cc1 (racemic)	2250 nM	–
Cc1ccc(S(=O)(=O)N2CCC3=CC(=O)CCC3(Cc3ccccc3)C2)cc1 (racemic)	99 nM	–
O=C1C=C2CCN(S(=O)(=O)c3ccc(-c4ccccc4)cc3)CC2(Cc2ccccc2)CC1 (centres undefined)	55 nM	–
CCCCS(=O)(=O)N1CCC2=CC(=O)CCC2(Cc2ccccc2)C1 (racemic)	> 10000 nM	–
O=C1C=C2CCN(S(=O)(=O)c3cccc([N+](=O)[O-])c3)CC2(Cc2ccccc2)CC1 (racemic)	3000 nM	–
CC(C)(C)c1ccc(S(=O)(=O)N2CCC3=CC(=O)CCC3(Cc3ccc([N+](=O)[O-])cc3)C2)cc1 (racemic)	45 nM	–
COc1ccc(S(=O)(=O)N2CCC3=CC(=O)CCC3(Cc3ccccc3)C2)cc1OC (racemic)	1300 nM	–
CS(=O)(=O)Nc1ccccc1S(=O)(=O)N1CCC2=CC(=O)CCC2(Cc2ccccc2)C1 (racemic)	1950 nM	–
CS(=O)(=O)Nc1cccc(S(=O)(=O)N2CCC3=CC(=O)CCC3(Cc3ccccc3)C2)c1 (centres undefined)	2100 nM	–
CC(=O)Nc1ccc(CC23CCC(=O)C=C2CCN(S(=O)(=O)c2ccc(C(C)(C)C)cc2)C3)cc1 (racemic)	56 nM	Ki (Glucocorticoid receptor [2]): > 1000 nM
CN(C)c1ccc(S(=O)(=O)N2CCC3=CC(=O)CCC3(Cc3ccccc3)C2)cc1 (racemic)	113 nM	–
COc1cccc(S(=O)(=O)N2CCC3=CC(=O)CCC3(Cc3ccccc3)C2)c1 (racemic)	196 nM	–
O=C1C=C2CCN(C(=O)c3ccccc3)CC2(Cc2ccccc2)CC1 (racemic)	> 10000 nM	–
O=C1C=C2CCN(C(=O)Nc3ccccc3)CC2(Cc2ccccc2)CC1 (racemic)	> 10000 nM	–
CC#C[C@@]1(O)CC[C@@]2(Cc3ccccc3)c3ccc(O)cc3CC[C@@H]2C1	0.6 nM	Ki (Glucocorticoid receptor [3]): 5.5 nM; Ki (Glucocorticoid receptor [2]): 4 nM
O=C1C=C2CCN(S(=O)(=O)c3ccccc3)CC2(Cc2ccccc2)CC1 (racemic)	225 nM	–
COc1cccc(OC)c1S(=O)(=O)N1CCC2=CC(=O)CCC2(Cc2ccccc2)C1 (racemic)	> 10000 nM	–
CC(C)(C)c1ccc(S(=O)(=O)N2CCC3=CC(=O)CCC3(Cc3ccc(F)cc3)C2)cc1 (racemic)	5 nM	Ki (Glucocorticoid receptor [2]): > 1000 nM
O=C1C=C2CCN(Cc3ccncc3)CC2(Cc2ccccc2)CC1 (racemic)	> 10000 nM	–
CN(C)S(=O)(=O)Nc1ccc(CC23CCC(=O)C=C2CCN(S(=O)(=O)c2ccc(C(C)(C)C)cc2)C3)cc1 (racemic)	13 nM	Ki (Glucocorticoid receptor [2]): 323 nM
CC(C)(C)c1ccc(S(=O)(=O)N2CCC3=CC(=O)CCC3(Cc3ccc(Br)cc3)C2)cc1 (centres undefined)	9 nM	Ki (Glucocorticoid receptor [2]): 200 nM
